Details: Liquid mixture 1, Pendant drop shape

O=C=O [carbon dioxide] + O
Details | interfacial tension [mN/m]
298.4 K, 6830 kPa | 31
298.5 K, 7200 kPa | 30.99
298.5 K, 8100 kPa | 31.09
298.6 K, 6490 kPa | 30.79
298.6 K, 8970 kPa | 30.98
298.6 K, 10630 kPa | 30.73
298.6 K, 13180 kPa | 30.62
298.6 K, 15150 kPa | 30.81
298.6 K, 20830 kPa | 29.84
